Source: patent publication US20140179688A1, “PLOD-2 Modulators and Their Use in the Treatment of Skin” (AVON PRODUCTS, INC., priority 2012, published 2014)

Test system: PLOD-2
Assay: PLOD-2 expression by qRT-PCR versus other anti-aging actives (Example 5)
Assay type: cell-based, Human
Conditions: for Significant Increases in PLOD-2 Expression: 48 hours, fibroblasts, relative to vehicle; for induction of a significant level of PLOD-2 in skin cells: concentrations as in Table 5
Description: Normal Human Dermal Fibroblasts were Grown in DMEM (Mediatech; cat. #: 15-013-CV) containing 10% Fetal Bovine Serum (Perbio; cat. #: SH30070.03), Penicillin/Streptomycin (Mediatech, Cat #30-001-C1), L-Glutamine (Mediatech; cat. #: 25-005-CI) at 37° C. and 10% CO2. […] RNA was isolated using RNeasy RNA extraction kit (74106) from Qiagen. RNA concentrations were determined using NanoDrop Spectrophotometer ND 1000 ([…]).
RT reactions were conducted in a total volume of 20 μl using the High Capacity cDNA kit from AB (PN 4368814). The RT mixture was prepared to contain 2 μl 10× TaqMan RT buffer, 1.2 μl dNTP mix ([…]), 1.0 μl 10× Random Hexamer, 1 μl RNase Inhibitor, 1 μl MultiScribe Reverse Transcriptase ([…]), 100 ng of RNA, and RNase-free water to make up the final volume of 20 μl. The reaction was incubated at 25° C. for 10 min, 45° C. for 45 min, and then 95° C. for 5 min in a BIORAD MY CYCLER.
QPCR was carried out using Applied Biosystems Universal PCR Master Mix (PN 4369016). The mixture contained 10 μl of Taqman Universal PCR mix, 1 μl of primer and probe mix, 2 μl of RT product, and 7 μl of deionized water. All probes, Taqman assays were, were purchased from Applied Biosystems, Hs01118190 ml for PLOD-2, and human GAPDH (PN 4352934). The temperature profiles for qPCR were 50° C. for 2 min, and 95° C. for 10 min for 1 cycle, then at 95° C. for 15 sec, and 60° C. for 1 min for 40 cycles carried out in Stratagene Mx 3005P qPCR machine.
RNA isolated from cells were analyzed by qRT-PCR for expression levels of PLOD-2, using GAPDH as an internal control.

Compound	induction of a significant level of PLOD-2 in skin cells	Significant Increases in PLOD-2 Expression (5 μM)	Significant Increases in PLOD-2 Expression (10 μM)	further results
Hyaluronic Acid	did not induce a significant level of PLOD-2	–	–	Significant Increases in PLOD-2 Expression (0.001%): No; Significant Increases in PLOD-2 Expression (0.005%): No
O=C(O)CO [Glycolic Acid (AHA), Glycolic Acid]	did not induce a significant level of PLOD-2	–	–	Significant Increases in PLOD-2 Expression (0.05%): No; Significant Increases in PLOD-2 Expression (0.10%): No
N#Cc1cccc(CN2CCNC(=O)CC2c2nccs2)c1 (centres unmarked) [ALB-H16063163]	significantly stimulate	–	–	–
CC1=C(/C=C/C(C)=C/C=C/C(C)=C/CO)C(C)(C)CCC1 [Retinol]	did not induce a significant level of PLOD-2	No	No	–
NC(=O)c1cccnc1 [Niacinamide]	did not induce a significant level of PLOD-2	–	–	Significant Increases in PLOD-2 Expression (0.05%): No; Significant Increases in PLOD-2 Expression (0.10%): No
COc1ccc(Cc2nc(=O)c(CCC(=O)N3CCC(C)CC3)n[nH]2)cc1OC [ALB-H09784893]	significantly stimulate	–	–	–
N-Acetyl-Tyrosinamide	significantly stimulate	–	–	–
Oc1ccc(C=Cc2cc(O)cc(O)c2)cc1 [Resveratrol]	did not induce a significant level of PLOD-2	No	No	–
COC1=C(OC)C(=O)C(C/C=C(\C)CC/C=C(\C)CC/C=C(\C)CC/C=C(\C)CC/C=C(\C)CC/C=C(\C)CC/C=C(\C)CC/C=C(\C)CC/C=C(\C)CCC=C(C)C)=C(C)C1=O [Coenzyme Q10]	–	Yes (11%)	Yes (24%)	–
